From patent US20240293392A1, “INHIBITOR COMPOUNDS” (NeoPhore Limited, priority 2021, published 2024)
pIC50: −log10 of the molar value. Structures can show the parent of a compound that is named as a salt.

Key:
[1] = target: T1, recombinant N-terminal PMS2 (residues 1-365) (Homo sapiens, UniProt P54278); test: Fluorescence Polarisation Assay for PMS2; assay type: binding; conditions: fluorescence polarisation probe displacement; 10 nM N-terminal PMS2, 5 nM probe compound; read-out: PMS2 IC50
T1 construct: recombinant N-terminal PMS2 (residues 1-365)
T1 sequence (P54278 1-365): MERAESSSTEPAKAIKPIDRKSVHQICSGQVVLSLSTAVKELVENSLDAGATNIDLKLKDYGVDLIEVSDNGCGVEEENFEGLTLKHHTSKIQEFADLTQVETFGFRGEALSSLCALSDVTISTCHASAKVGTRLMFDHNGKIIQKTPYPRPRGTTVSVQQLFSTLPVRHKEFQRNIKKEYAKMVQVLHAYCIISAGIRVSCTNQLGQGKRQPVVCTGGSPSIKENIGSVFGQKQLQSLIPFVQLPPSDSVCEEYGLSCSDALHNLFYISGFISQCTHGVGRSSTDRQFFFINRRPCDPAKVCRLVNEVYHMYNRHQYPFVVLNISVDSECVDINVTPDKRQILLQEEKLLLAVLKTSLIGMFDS
Description: Fluorescence Polarisation Assay for PMS2
For single point screening, test compounds were added to wells in columns 1-22 whilst DMSO was added to wells in columns 23 and 24 in order to normalise the plate. For potency determination, serial dilutions of test compounds were added to wells in columns 3-22 and DMSO volume was normalised across the plate.
20 μL assay buffer was added to all wells in columns 1 and 24 (column 24 only for single point screening) using a MultiDrop Combi (ThermoFisher). Plates were centrifuged for 1 minute at 250×g and were incubated at room temperature for 30 minutes prior to the addition of 20 μL of 2× (20 nM) of 5-((5-(4-((2-(2,4-dihydroxy-5-isopropylbenzoyl)isoindolin-5-yl)methyl)piperazin-1-yl)pentyl)carbamoyl)-2-(6-(dimethylamino)-3-(dimethyliminio)-3H-xanthen-9-yl)benzoate (referred to hereinafter as “probe compound”) in assay buffer (prepared from a 100 μM DMSO stock) with a MultiDrop Combi (ThermoFisher). The final concentration of N-terminal PMS2 was 10 nM and the final concentration of probe compound was 5 nM.
Compound plates were centrifuged for 1 minute at 250×g for 1 minute and were incubated at room temperature for 1 hour before being read on a PheraStar FSX (fitted with 384-well aperture spoon and 540 590 590 FP optic module). The gain and focus were adjusted before each plate was read so that the polarisation of a no enzyme control (column 24) was equal to 35 mP. Data were normalised against the no inhibitor controls (column 23) and no enzyme controls (column 24).

[2] = target: T2, recombinant N-terminal MLH1 (residues 15-340) (Homo sapiens, UniProt P40692); test: Fluorescence Polarisation Assay for MLH1; assay type: binding; conditions: fluorescence polarisation probe displacement; 100 nM N-terminal MLH1, 5 nM probe compound
T2 construct: recombinant N-terminal MLH1 (residues 15-340)
T2 sequence (P40692 15-340): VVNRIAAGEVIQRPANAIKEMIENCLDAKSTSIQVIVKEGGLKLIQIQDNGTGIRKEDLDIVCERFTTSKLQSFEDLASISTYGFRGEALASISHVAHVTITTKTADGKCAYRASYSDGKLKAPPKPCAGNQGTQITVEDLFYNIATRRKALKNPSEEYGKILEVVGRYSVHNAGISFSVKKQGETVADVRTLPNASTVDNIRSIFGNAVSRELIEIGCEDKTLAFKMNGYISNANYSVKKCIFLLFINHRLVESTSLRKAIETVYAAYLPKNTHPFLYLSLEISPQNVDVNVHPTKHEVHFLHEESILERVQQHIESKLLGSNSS
Description: Fluorescence Polarisation Assay for MLH1
Test compounds, as 10 mM DMSO stocks, were dispensed into a 384-well Low Flange Black Flat Bottom Polystyrene Non-binding Surface plate (Corning®, item number 3575) using a Labcyte Echo acoustic liquid handler. Test compounds were added to wells in columns 1-22 whilst DMSO was added to wells in columns 23 and 24 in order to normalise the plate. 20 μL of a 2× solution (200 nM) of recombinant N-terminal MLH1 (residues 15-340) in assay buffer (25 mM HEPES, pH 7.5, 250 mM NaCl, 10 mM MgCl2, 0.01% Triton X-100, 5 mM dithiothreitol) was added to all wells in columns 1-23 and 20 μL assay buffer was added to all wells in column 24 using an E1-ClipTip pipette (ThermoFisher). Plates were centrifuged for 1 minute at 250×g and were incubated at room temperature for 30 minutes prior to the addition of 20 μL of 2× (10 nM) 5-((5-(4-((2-(2,4-dihydroxy-5-isopropylbenzoyl)isoindolin-5-yl)methyl)piperazin-1-yl)pentyl)carbamoyl)-2-(6-(dimethylamino)-3-(dimethyliminio)-3H-xanthen-9-yl)benzoate in assay buffer (prepared from a 1 mM DMSO stock) with an E1-ClipTip pipette (ThermoFisher). The final concentration of N-terminal MLH1 was 100 nM and the final concentration of the probe compound was 5 nM. Compound plates were centrifuged for 1 minute at 250×g for 1 minute and immediately read on a PheraStar FSX (fitted with 384-well aperture spoon and 590 675 675 FP optic module). The gain and focus were adjusted before each plate was read so that the polarisation of a no enzyme control (column 24) was equal to 35 mP. Data were normalised against the no inhibitor controls (column 23) and no enzyme controls (column 24).

## CNc1cc(OCCOC)cc2c1CN(C(=O)c1c(O)cc(O)cc1OCc1ccccc1)CC2 [Example 128, (2-(Benzyloxy)-4,6-dihydroxyphenyl)(6-(2-methoxyethoxy)-8-(methylamino)-3,4-dihydroisoquinolin-2(1H)-yl)methanone]
[1]
  pIC50: 5.00 to 6.00
[2]
  pIC50: 5.00 to 6.00

## O=C(c1c(O)cc(O)cc1OCc1ccccc1)N1Cc2ccc(CNC3COC3)cc2C1 [Example 144, 2-(Benzyloxy)-4,6-dihydroxyphenyl-(5-((oxetan-3-ylamino)methyl)isoindolin-2-yl)methanone]
[1]
  pIC50: > 6.00
[2]
  pIC50: > 6.00

## O=C(c1c(O)cc(O)cc1OCc1ccccc1)N1CCc2c(cccc2NC2CCOC2)C1 (stereo not drawn) [Example 27, (2-(Benzyloxy)-4,6-dihydroxyphenyl)(5-((tetrahydrofuran-3-yl)amino)-3,4-dihydroisoquinolin-2(1H)-yl)methanone]
[1]
  pIC50: 5.00 to 6.00
[2]
  pIC50: 5.00 to 6.00

## O=C(c1c(O)cc(O)cc1OCc1cccnn1)N1Cc2cccc(NC3CCOC3)c2C1 (stereo not drawn) [Example 99, (2,4-Dihydroxy-6-(pyridazin-3-ylmethoxy)phenyl)(4-((tetrahydrofuran-3-yl)amino)isoindolin-2-yl)methanone]
[1]
  pIC50: < 5.00
[2]
  pIC50: 5.00 to 6.00

## COc1cc(O)cc(O)c1C(=O)N1Cc2cccc(NC3CCOC3)c2C1 (stereo not drawn) [Example 16, (2,4-Dihydroxy-6-methoxyphenyl)(4-((tetrahydrofuran-3-yl)amino)isoindolin-2-yl)methanone]
[1]
  pIC50: < 5.00
[2]
  pIC50: 5.00 to 6.00

## CNc1cccc2c1CN(C(=O)c1c(O)cc(O)cc1OCc1ccccc1)C2 [Example 29, (2-(Benzyloxy)-4,6-dihydroxyphenyl)(4-(methylamino)isoindolin-2-yl)methanone]
[1]
  pIC50: 5.00 to 6.00
[2]
  pIC50: 5.00 to 6.00

## O=C(c1c(O)cc(O)cc1OCc1ccncc1)N1Cc2cccc(NC3CCOC3)c2C1 (stereo not drawn) [Example 97, (2,4-Dihydroxy-6-(pyridin-4-ylmethoxy)phenyl)(4-((tetrahydrofuran-3-yl)amino)isoindolin-2-yl)methanone]
[1]
  pIC50: 5.00 to 6.00
[2]
  pIC50: > 6.00

## COCOc1cc(OCOC)c(C(=O)N2CCc3cccc(N(C)C4CN(C(C)=O)C4)c3C2)c(OCc2ccccc2)c1 [Example 149, 1-(3-((2-(2-(Benzyloxy)-4,6-bis(methoxymethoxy)benzoyl)-1,2,3,4-tetrahydroisoquinolin-8-yl)(methyl)amino)azetidin-1-yl)ethan-1-one]
[1]
  pIC50: < 5.00
[2]
  pIC50: 5.00 to 6.00

## O=C(c1c(O)cc(O)cc1OCc1ccccc1)N1Cc2cccc(OCC3CNC3)c2C1 [Example 90, (4-(Azetidin-3-ylmethoxy)isoindolin-2-yl)(2-(benzyloxy)-4,6-dihydroxyphenyl) methanone]
[1]
  pIC50: 5.00 to 6.00
[2]
  pIC50: 5.00 to 6.00

## Cn1cc(Nc2cccc3c2CN(C(=O)c2c(O)cc(O)cc2OCc2ccccc2)C3)cn1 [Example 21, (2-(Benzyloxy)-4,6-dihydroxyphenyl)(4-((1-methyl-1H-pyrazol-4-yl)amino)isoindolin-2-yl)methanone]
[1]
  pIC50: 5.00 to 6.00
[2]
  pIC50: 5.00 to 6.00

## COc1cc2c(c(NC3CCOC3)c1)CN(C(=O)c1c(O)cc(O)cc1OCc1ccccc1)CC2 (stereo not drawn) [Example 54, (2-(Benzyloxy)-4,6-dihydroxyphenyl)(6-methoxy-8-((tetrahydrofuran-3-yl)amino)-3,4-dihydroisoquinolin-2(1H)-yl)methanone]
[1]
  pIC50: 5.00 to 6.00
[2]
  pIC50: > 6.00

## O=C(c1c(O)cc(O)cc1OCc1ccccc1)N1CCc2ccc(CNC3CCOC3)cc2C1 (stereo not drawn) [Example 85, (2-(Benzyloxy)-4,6-dihydroxyphenyl)(7-(((tetrahydrofuran-3-yl)amino)methyl)-3,4-dihydroisoquinolin-2(1H)-yl)methanone]
[1]
  pIC50: 5.00 to 6.00
[2]
  pIC50: 5.00 to 6.00

## CC(=O)NCc1cccc2c1CN(C(=O)c1c(O)cc(O)cc1OCc1ccccc1)C2 [Example 95, N-((2-(2-(Benzyloxy)-4,6-dihydroxybenzoyl)isoindolin-4-yl)methyl)acetamide]
[1]
  pIC50: 5.00 to 6.00
[2]
  pIC50: 5.00 to 6.00

## O=C(c1c(O)cc(O)cc1OCc1ccccc1)N1CCc2cccc(N[C@@H]3CCOC3)c2C1 [Example 1, (R)-(2-(Benzyloxy)-4,6-dihydroxyphenyl)(8-((tetrahydrofuran-3-yl)amino)-3,4-dihydro-isoquinolin-2(1H)-yl)methanone]
[1]
  pIC50: < 5.00
[2]
  pIC50: > 6.00

## CN1CCC(Nc2cccc3c2CN(C(=O)c2c(O)cc(O)cc2OCc2ccccc2)CC3)C1 (stereo not drawn) [Example 78, (2-(Benzyloxy)-4,6-dihydroxyphenyl)(8-((1-methylpyrrolidin-3-yl)amino)-3,4-dihydroisoquinolin-2(1H)-yl)methanone]
[1]
  pIC50: < 5.00
[2]
  pIC50: > 6.00

## O=C(c1c(O)cc(O)cc1OCc1ccccc1)N1CCc2ccc(F)c(NC3CCOC3)c2C1 (stereo not drawn) [Example 116, (2-(Benzyloxy)-4,6-dihydroxyphenyl)(7-fluoro-8-((tetrahydrofuran-3-yl)amino)-3,4-dihydroisoquinolin-2(1H)-yl)methanone]
[1]
  pIC50: 5.00 to 6.00
[2]
  pIC50: 5.00 to 6.00

## O=C(c1c(O)cc(O)cc1OCc1ccccc1)N1CCc2cccc(Nc3cncnc3)c2C1 [Example 71, (2-(Benzyloxy)-4,6-dihydroxyphenyl)(8-(pyrimidin-5-ylamino)-3,4-dihydroisoquinolin-2(1H)-yl)methanone]
[1]
  pIC50: 5.00 to 6.00
[2]
  pIC50: > 6.00

## O=C(c1c(O)cc(O)cc1OCc1ccccc1)N1Cc2cccc(Nc3cncnc3)c2C1 [Example 19, (2-(Benzyloxy)-4,6-dihydroxyphenyl)(4-(pyrimidin-5-ylamino)isoindolin-2-yl)methanone]
[1]
  pIC50: > 6.00
[2]
  pIC50: > 6.00

## NCCCCCN1CCN(Cc2ccc3c(c2)CN(C(=O)c2c(O)cc(O)cc2OCc2ccccc2)C3)CC1 [Example 104, (5-((4-(5-Aminopentyl)piperazin-1-yl)methyl)isoindolin-2-yl)(2-(benzyloxy)-4,6 dihydroxyphenyl)methanone hydrochloride]
[1]
  pIC50: > 6.00
[2]
  pIC50: > 6.00

## O=C(c1c(O)cc(O)cc1OCc1ccccn1)N1CCc2cccc(NC3COC3)c2C1 [Example 57, (2,4-Dihydroxy-6-(pyridin-2-ylmethoxy)phenyl)(8-(oxetan-3-ylamino)-3,4-dihydroisoquinolin-2(1H)-yl)methanone]
[1]
  pIC50: < 5.00
[2]
  pIC50: > 6.00

## CN(C)Cc1cc2c(c(N[C@@H]3CCOC3)c1)CN(C(=O)c1c(O)cc(O)cc1OCc1ccccc1)CC2 [Example 126, (R)-(2-(Benzyloxy)-4,6-dihydroxyphenyl)(6-((dimethylamino)methyl)-8-((tetrahydrofuran-3-yl)amino)-3,4-dihydroisoquinolin-2(1H)-yl)methanone]
[1]
  pIC50: 5.00 to 6.00
[2]
  pIC50: > 6.00
